One experiment deals with Gox0644 (Gluconobacter oxydans, UniProt Q5FT75). Put plainly: NADPH-dependent α-ketocarbonyl reductase activity assay (rate of decrease of NADPH at 340 nm). Format: biochemical. As to conditions: Table 3; 10 mM substrate, 40 mM K-phosphate buffer pH 7.0, 0.05 mM NAD(P)H, 30 °C; U/mg = µmol x min^-1 x mg protein^-1. Here is the method: Reactions were induced by addition of enzyme or substrate. One unit was defined as the amount of enzyme activity catalyzing the conversion of 1 µmol of pyridine nucleotide per min at 30 °C. NMR Analysis of Biotransformation Products: Biotransformations were extracted with equal volumes of CDCl3. and ^13C NMR spectra were recorded on a Bruker Avance 300 DPX spectrometer operating at 300 MHz for ^1H NMR and at 75 MHz for ^13C NMR, respectively.
Reactions were induced by addition of enzyme or substrate. One unit of activity was defined as the amount of enzyme activity catalyzing the conversion of 1 µmol of pyridine nucleotide per min at 30 °C.
The standard reaction mixture (1 ml) for the reduction reactions of substrates contained 10 mM substrate, 40 mM potassium phosphate buffer (K-phosphate buffer) pH 7.0, 0.05 mM NAD(P)H, and the enzyme unless otherwise noted. Reactions were induced by addition of enzyme or substrate. One unit of activity was defined as the amount of enzyme activity catalyzing the conversion of 1 µmol of pyridine nucleotide per min at 30 °C. […] Table 3: Enzymatic activities with α-diketones, α-ketoaldehydes and α-ketoesters

The next experiment has as its target T1, Gox1615 (Gluconobacter oxydans, UniProt Q5FQJ0).
T1 sequence (Q5FQJ0 1-332): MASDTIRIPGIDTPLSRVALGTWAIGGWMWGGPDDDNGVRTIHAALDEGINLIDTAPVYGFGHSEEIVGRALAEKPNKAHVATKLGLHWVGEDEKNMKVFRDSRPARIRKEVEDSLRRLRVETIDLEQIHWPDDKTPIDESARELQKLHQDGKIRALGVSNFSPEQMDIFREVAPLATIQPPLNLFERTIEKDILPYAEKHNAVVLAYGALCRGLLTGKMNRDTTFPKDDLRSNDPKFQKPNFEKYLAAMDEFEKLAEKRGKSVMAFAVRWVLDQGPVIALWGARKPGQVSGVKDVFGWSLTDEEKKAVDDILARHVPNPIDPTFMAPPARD
The description is as above. It counts as biochemical. Here is the method: Measurement of enzyme activity: NADPH-dependent α-ketocarbonyl reductases were assayed by a routine method used for NAD(P)-linked enzymes by recording the rate of decrease of NADPH at 340 nm (ε = 6.22 mM^-1 x cm^-1)) with substrates at 30 °C. The reaction mixture (1 ml) for reduction of α-ketocarbonyl substrates contained 10 mM substrate, 40 mM potassium phosphate buffer pH 7.0, 0.025 mM NAD(P)H and the enzyme. Reactions were induced by addition of enzyme or substrate. One unit was defined as the amount of enzyme activity catalyzing the conversion of 1 µmol of pyridine nucleotide per min at 30 °C. NMR Analysis of Biotransformation Products: Biotransformations were extracted with equal volumes of CDCl3. and ^13C NMR spectra were recorded on a Bruker Avance 300 DPX spectrometer operating at 300 MHz for ^1H NMR and at 75 MHz for ^13C NMR, respectively. Spectra were processed using Bruker TonSpin 1.3 for Windows software and calibrated to the residual solvent peak of CDCl3 (δH = 7.26 / δC = 77.0).
NADPH-dependent α-ketocarbonyl reductases were assayed by a routine method used for NAD(P)-linked enzymes by recording the rate of decrease of NADPH at 340 nm (ε = 6.22 mM^-1.cm^-1) with substrates at 30 °C. The reaction mixture (1 ml) for reduction of α-ketocarbonyl substrates contained 10 mM substrate, 40 mM potassium phosphate buffer pH 7.0, 0.025 mM NADPH, and the enzyme. Reactions were induced by addition of enzyme or substrate. One unit of activity was defined as the amount of enzyme activity catalyzing the conversion of 1 µmol of pyridine nucleotide per min at 30 °C.
Purified NAD(P)-dependent oxidoreductases were assayed at 30 °C by a routine method used for NAD(P)-linked enzymes by recording the rate of decrease of NAD(P)H at 340 nm (ε = 6.22 mM^-1˙cm^-1) with substrates capable of reduction reactions. The standard reaction mixture (1 ml) for the reduction reactions of substrates contained 10 mM substrate, 40 mM potassium phosphate buffer (K-phosphate buffer) pH 7.0, 0.05 mM NAD(P)H, and the enzyme unless otherwise noted. Reactions were induced by addition of enzyme or substrate. One unit of activity was defined as the amount of enzyme activity catalyzing the conversion of 1 µmol of pyridine nucleotide per min at 30 °C. Measurement of the protein content was performed by the method of Bradford (Bradford M.M., Anal. Biochem. 72:248-254 (1976)). Table 3: Enzymatic activities with α-diketones, α-ketoaldehydes and α-ketoesters

Turning to `CCC(=O)C(C)=O` [2,3-pentanedione], at Gox0644, the “Gox0644 U/mg*” value was determined as 69.6 U/mg. Also, the “Gox1615 U/mg*” value on Gox1615 (Table 3, 10 mM substrate, 40 mM K-phosphate buffer pH 7.0, 0.05 mM NAD(P)H, 30 °C, U/mg = µmol x min^-1 x mg protein^-1) worked out at 7.0 U/mg. For the same compound, the “Specific Activity (U/mg)*” value on Gox1615 (Table 5, cofactor NADPH, U/mg = µmol/mg·min) amounted to 7.0 U/mg.

The values above are taken from EP2316926B1, “Enantioselective production of alpha-hydroxy carbonyl compounds” (priority 2009, dated 2011).
